How the values were obtained:
planktonic algae = assay: Algae destruction in outdoor pool; format: cell-based; conditions: same pool system, opening procedure, 500 lbs
Protocol: In an outdoor 360,000 gallon pool contaminated with planktonic algae, 200 lbs of the cobalt monopersulfate composition comprising 99.3 wt % Potassium monopersulfate, 0.5 wt % Magnesium Carbonate, and 0.2 wt % Cobalt Acetate as previously disclosed was added to the system by broadcasting. 40 pounds of soda ash was added to neutralize excess acidity, and the ORP controller was set at 780 mV.
The ORP was consistently achieving 780 mV with 2.0-2.5 ppm of free chlorine.
For comparison purposes, the same pool system during the opening procedure was treated with 500 lbs of calcium hypochlorite and allowed to circulate for 7 days before obtaining the water clarity and being allowed to open to swimmers.

Catalyst precipitation = format: physicochemical
Protocol: 20 grams of potassium monopersulfate, 0.1 grams cuprous chloride and 80 grams distilled water was added to a 250 ml beaker and mixed on a magnetic stirrer until dissolved. 1 gram of solution was carefully measured and diluted with 99 grams of distilled water. The diluted sample was treated with sodium bisulfite to remove residual monopersulfate, the pH was then adjusted to 7.3 using a diluted solution of sodium hydroxide. The resulting clear solution was tested using a HACH Company Method 8506 bicinchoninate-powder pillow test procedure and a DR-2000 spectrophotometer. The resulting copper level was measured and corrected compensate for the dilution. The final result being 4.9 ppm as Cu.
A second 1-gram sample from the original solution was neutralized with sodium bisulfite, then treated with 2-grams of 0.1 wt % alum solution to achieve approximately 20 ppm as alum in the diluted solution. The pH was adjust with dilute sodium hydroxide to achieve a pH of approximately 7.3, mixed for about 5 minutes, then allowed to settle in a graduated cylinder. 25 ml of clear water was decanted and tested for copper, resulting a value of 0.78 ppm as Cu.

## [Ca+2].[O-]Cl.[O-]Cl [calcium hypochlorite]
Planktonic algae
  circulation time before obtaining water clarity: 7 days

## alum
Catalyst precipitation; approximately 20 ppm alum, pH approximately 7.3, mixed about 5 minutes, settled
  copper level in decanted clear water: 0.78 ppm as Cu

## [Cl][Cu] [cuprous chloride]
Catalyst precipitation; no alum, 1:99 diluted, pH 7.3, monopersulfate removed
  copper level: 4.9 ppm as Cu

Source: patent US20090304810A1, “Composition and method for enhanced sanitation and oxidation of aqueous systems” (priority 2005, published 2009)
